{"source": "paper PMC9947563", "about": "“Identification of the molecular determinants of antagonist potency in the allosteric binding pocket of human P2X4” (Frontiers in Pharmacology, 2023)", "key": {"[1]": {"target": "T1, rat P2X4 wild type (r4-WT) (Rattus norvegicus, UniProt P51577)", "T1 construct": "expressed in transfected cells; host or cells: 1321N1 astrocytoma cells, stably transfected", "T1 sequence (P51577 1-388)": "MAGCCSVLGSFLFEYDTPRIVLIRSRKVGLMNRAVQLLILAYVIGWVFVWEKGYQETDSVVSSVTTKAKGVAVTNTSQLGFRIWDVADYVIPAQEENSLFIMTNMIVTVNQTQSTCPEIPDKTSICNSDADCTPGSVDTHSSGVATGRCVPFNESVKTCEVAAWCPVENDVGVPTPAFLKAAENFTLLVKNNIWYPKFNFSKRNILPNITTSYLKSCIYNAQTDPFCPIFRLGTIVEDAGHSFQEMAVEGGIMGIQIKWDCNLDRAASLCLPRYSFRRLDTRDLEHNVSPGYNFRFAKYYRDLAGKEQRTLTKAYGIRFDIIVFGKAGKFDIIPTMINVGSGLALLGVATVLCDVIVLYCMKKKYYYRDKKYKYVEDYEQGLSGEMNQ", "assay": "ATP-induced calcium influx (Fluo-4) in 1321N1 cells stably expressing rat P2X4 wild type", "format": "cell-based", "description": "(§1) 1321N1 astrocytoma cells were cultured (at 37°C, 5% CO2) in Dulbecco’s modified Eagle’s medium (DMEM/F-12 with Glutamax) supplemented with 10% foetal bovine serum (FBS) and 200 unit/mL of penicillin and streptomycin antibiotics (Fisher Scientific). Stably transfected clones were grown in DMEM/F-12 with Glutamax medium supplemented with G-418 (Geneticin®, Fisher Scientific), 600 μg/mL and 150 μg/mL during selection and maintenance, respectively. FuGene HD Transfection Reagent (Promega) was used according to the manufacturer’s protocol for the generation of stable cell line expressing h4-WT, r4-WT, h4-I312T, and r4-T312I. Each cell line was then tested for P2X4 receptor expression by Western blot and for functionality using the Ca^2+ influx assay.\n(§2) Cells were plated the day before assay into poly-lysine-coated 96-well plates at 40–55,000 cells/mL. To load cells with calcium-sensitive fluorescent dye, culture medium was replaced with modified Ringer’s buffer (140 mM NaCl, 10 mM HEPES, 10 mM Glucose, 1 mM MgCl2, 1 mM CaCl2, 2.5 mM KCl, 0.5% BSA, pH = 7.4) containing 2.6 μM FLUO4-AM (Fisher Scientific) and 250 μM probenecid (Sigma), and cells were incubated for 20–30 min. Prior to assay, buffer was replaced with fresh modified Ringer’s buffer containing probenecid but not the dye. […] A Fluoroskan Ascent FL plate reader (Fisher Scientific) equipped with a solution dispenser and an appropriate filter pair (excitation: 485 nm, emission: 538 nm) was used to record 5-s baseline followed by P2X4-mediated calcium influx measurements for 20–25 s after ATP stimulation (final concentration ranging between 0.03 and 100 μM in buffered solution, pH = 7.4). The collected responses were normalized to the first data-point recorded after ATP injection.\nData processing and data analysis were carried out using Graphpad Prism version 6 for Mac. Figures are presented as Mean ± SEM. Statistical significance of any difference observed between samples was calculated through one-way ANOVA followed by Dunnett’s multiple comparisons test with a single pooled variance (control, unless otherwise specified) or, when comparing only two sets of data, using an unpaired t-test with Welch’s correction. When comparing data obtained from multiple independent experiments (N), each dataset was normalized to the mean value obtained for the vehicle control."}, "[2]": {"target": "T2, human P2X4 I312T (h4-I312T) (Homo sapiens, UniProt Q99571, I312T)", "T2 construct": "expressed in transfected cells; host or cells: 1321N1 astrocytoma cells, stably transfected", "T2 sequence (Q99571 1-388 I312T)": "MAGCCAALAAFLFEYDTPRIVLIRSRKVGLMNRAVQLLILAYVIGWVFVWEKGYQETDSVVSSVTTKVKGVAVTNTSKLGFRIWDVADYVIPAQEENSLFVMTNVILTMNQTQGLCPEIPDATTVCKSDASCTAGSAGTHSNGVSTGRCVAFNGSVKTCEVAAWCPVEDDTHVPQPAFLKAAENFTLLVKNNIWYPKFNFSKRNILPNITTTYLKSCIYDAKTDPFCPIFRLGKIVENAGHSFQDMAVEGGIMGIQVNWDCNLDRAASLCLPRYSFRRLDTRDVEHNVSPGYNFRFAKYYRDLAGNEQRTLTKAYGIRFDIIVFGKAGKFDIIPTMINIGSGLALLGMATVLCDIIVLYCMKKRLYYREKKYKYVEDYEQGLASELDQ", "assay": "ATP-induced calcium influx (Fluo-4) in 1321N1 cells stably expressing human P2X4 I312T", "format": "cell-based", "description": "Plasmid encoding rat P2X4 (r4-WT) ([Royle et al., 2005]) was a kind gift from Ruth Murrell-Lagnado, whilst that encoding human P2X4 with a C-terminal (His)10 tag has been reported previously ([Young et al., 2008]).\nas §1, with “FuGene HD Transfection Reagent (Promega) was used according to the manufacturer’s protocol for the generation of stable cell line expressing h4-WT, r4-WT, h4-I312T, and r4-T312I.” left out\nas §2, with “To load cells with calcium-sensitive fluorescent dye, culture medium was replaced with modified Ringer’s buffer (140 mM NaCl, 10 mM HEPES, 10 mM Glucose, 1 mM MgCl2, 1 mM CaCl2, 2.5 mM KCl, 0.5% BSA, pH = 7.4) containing 2.6 μM FLUO4-AM (Fisher Scientific) and 250 μM probenecid (Sigma), and cells were incubated for 20–30 min.” left out\nData processing and data analysis were carried out using Graphpad Prism version 6 for Mac. Figures are presented as Mean ± SEM. […] When comparing data obtained from multiple independent experiments (N), each dataset was normalized to the mean value obtained for the vehicle control."}, "[3]": {"system": "rP2X4", "conditions": "ref Ase et al. (2015); cited from earlier work"}, "[4]": {"system": "mP2X4", "conditions": "ref Ase et al. (2015); read-out: mP2X4 IC50; cited from earlier work"}, "[5]": {"system": "human P2X4 open channel", "parameters": "method as in Bidula et al. (2022)", "conditions": "ref Bidula et al. (2022); cited from earlier work"}}}
{"smiles": "CC(C)c1cc(Br)c(NC(=O)Nc2cccnc2)c(Br)c1", "note": "[BX430]", "values": [{"measurement": "IC50", "setting": "[1]", "value": 66.1, "unit": "µM"}, {"measurement": "Hill coefficient (BX-430 inhibition curve)", "setting": "[1]; rat P2X4 WT, 1 µM ATP", "value": 1.441}, {"measurement": "decrease in BX-430 potency by I312T mutation in human P2X4", "setting": "[2]; human P2X4 I312T vs human P2X4 WT", "value": "> 48", "unit": "fold"}, {"measurement": "Hill coefficient (BX-430 inhibition curve)", "setting": "[2]; human P2X4 I312T, 1 µM ATP", "value": 2.057}, {"measurement": "IC50", "setting": "[3]", "value": "> 10", "unit": "µM"}, {"measurement": "IC50", "setting": "[4]", "value": "> 10", "unit": "µM"}, {"measurement": "capability of blocking the open channel", "setting": "[5]", "value": "capable of blocking the open channel"}]}
